# Measured values published in ChEMBL document CHEMBL3992552, “Mechanisms of action and structure-activity relationships of cytotoxic flavokawain derivatives” (Bioorg Med Chem, 2017).
# Active and inactive are the calls of the source. No cut-off for these calls is given here.
# Assays:
# Caco-2 [1] = assay: Cytotoxicity against human Caco2 cells assessed as cell survival at 50 uM after 48 hrs by Hoechst 33342 staining based assay relative to control; type: functional; conditions: Caco-2, 48 h, read-out: Survival
# MDA-MB-231 [2] = assay: Cytotoxicity against human MDA-MB-231 cells assessed as cell survival at 50 uM after 48 hrs by Hoechst 33342 staining based assay relative to control; type: functional; conditions: MDA-MB-231, 48 h, read-out: Survival
# PC-3 [3] = assay: Cytotoxicity against human PC3 cells assessed as cell survival at 50 uM after 48 hrs by Hoechst 33342 staining based assay relative to control; type: functional; conditions: PC-3, 48 h, read-out: Survival
# [4] = Cytotoxicity against human fibroblasts assessed as cell survival at 50 uM after 48 hrs by Hoechst 33342 staining based assay relative to control; parameters: species or system Fibroblast; conditions: read-out: Survival
# Huh-7 [5] = assay: Cytotoxicity against human HuH7 cells assessed as cell viability after 48 hrs by Hoechst 33342 staining based assay; type: functional; conditions: Huh-7, 48 h
# Caco-2 [6] = assay: Cytotoxicity against human Caco2 cells assessed as cell viability after 48 hrs by Hoechst 33342 staining based assay; type: functional; conditions: Caco-2, 48 h
# MDA-MB-231 [7] = assay: Cytotoxicity against human MDA-MB-231 cells assessed as cell viability after 48 hrs by Hoechst 33342 staining based assay; type: functional; conditions: MDA-MB-231, 48 h
# HaCaT [8] = assay: Cytotoxicity against human HaCaT cells assessed as cell viability after 48 hrs by Hoechst 33342 staining based assay; type: functional
# Fibroblast = assay: Cytotoxicity against human fibroblasts assessed as cell viability after 48 hrs by Hoechst 33342 staining based assay
# RL = assay: Cytotoxicity against human RL assessed as cell viability after 48 hrs by Hoechst 33342 staining based assay; type: functional
# MCF7 [9] = assay: Cytotoxicity against human MCF7 assessed as cell viability after 48 hrs by Hoechst 33342 staining based assay; type: functional; conditions: MCF7, 48 h
# [10] = Selectivity index, ratio of IC50 for human fibroblasts to IC50 for human Caco2 cells
# [11] = Selectivity index, ratio of IC50 for human fibroblasts to IC50 for human PC3 cells
# [12] = Selectivity index, ratio of IC50 for human fibroblasts to IC50 for human MCF7 cells
# HCT-116 [13] = assay: Induction of apoptosis in human HCT116 cells harboring wild-type p53 assessed as increase in early apoptosis at 2 times IC50 after 48 hrs by YoPro/propidium iodide/Hoechst staining based assay; type: functional, cell-based
# PC-3 [14] = assay: Induction of apoptosis in human PC3 cells harboring p53 mutant assessed as increase in early apoptosis at 2 times IC50 after 48 hrs by YoPro/propidium iodide/Hoechst staining based assay; type: functional, cell-based
# PC-3 [15] = assay: Induction of apoptosis in human PC3 cells harboring p53 mutant assessed as increase in late apoptosis at 2 times IC50 after 48 hrs by YoPro/propidium iodide/Hoechst staining based assay; type: functional, cell-based
# MCF7 [16] = assay: Induction of apoptosis in human MCF7 cells harboring wild-type p53 assessed as increase in early apoptosis at 2 times IC50 after 24 hrs by YoPro/propidium iodide/Hoechst staining based assay; type: functional, cell-based
# MDA-MB-231 [17] = assay: Cell cycle arrest in human MDA-MB-231 cells harboring p53 mutant assessed as accumulation at S phase at 10 uM measured after 48 hrs by Hoechst/BrdU staining based fluorescence assay (reference value: 42.2%); type: functional
# HCT-116 [18] = assay: Cell cycle arrest in human HCT116 cells harboring wild-type p53 assessed as mitotic index at 10 uM measured after 48 hrs by Hoechst staining based fluorescence assay (reference value: 2.3); type: functional
# HCT-116 [19] = assay: Cell cycle arrest in human HCT116 cells harboring wild-type p53 assessed as accumulation at S phase at 10 uM measured after 48 hrs by Hoechst/BrdU staining based fluorescence assay (reference value: 68.4%); type: functional
# PC-3 [20] = assay: Cell cycle arrest in human PC3 cells harboring p53 mutant assessed as accumulation at S phase at 10 uM measured after 48 hrs by Hoechst/BrdU staining based fluorescence assay (reference value: 40.8%); type: functional
# NCI-H727 [21] = assay: Cell cycle arrest in human NCI-H727 cells harboring p53 mutant assessed as mitotic index at 10 uM measured after 48 hrs by Hoechst staining based fluorescence assay (reference value: 1.1); type: functional
# NCI-H727 [22] = assay: Cell cycle arrest in human NCI-H727 cells harboring p53 mutant assessed as accumulation at S phase at 10 uM measured after 48 hrs by Hoechst/BrdU staining based fluorescence assay (reference value: 40.3%); type: functional
# Huh-7 [23] = assay: Cell cycle arrest in human HuH7 cells assessed as mitotic index at 25 uM measured after 48 hrs by Hoechst staining based fluorescence assay (reference value: 2.2); type: functional
# Huh-7 [24] = assay: Cell cycle arrest in human HuH7 cells assessed as accumulation at S phase at 25 uM measured after 48 hrs by Hoechst/BrdU staining based fluorescence assay (reference value: 44%); type: functional
# Caco-2 [25] = assay: Cell cycle arrest in human Caco2 cells assessed as mitotic index at 25 uM measured after 48 hrs by Hoechst staining based fluorescence assay (reference value: 3.6); type: functional
# HCT-116 [26] = assay: Cell cycle arrest in human HCT116 cells harboring wild-type p53 assessed as accumulation at S phase at 25 uM measured after 48 hrs by Hoechst/BrdU staining based fluorescence assay (reference value: 68.4%); type: functional
# PC-3 [27] = assay: Cell cycle arrest in human PC3 cells harboring p53 mutant assessed as mitotic index at 25 uM measured after 48 hrs by Hoechst staining based fluorescence assay (reference value: 2.5); type: functional
# NCI-H727 [28] = assay: Cell cycle arrest in human NCI-H727 cells harboring p53 mutant assessed as mitotic index at 25 uM measured after 48 hrs by Hoechst staining based fluorescence assay (reference value: 1.1); type: functional
# NCI-H727 [29] = assay: Cell cycle arrest in human NCI-H727 cells harboring p53 mutant assessed as accumulation at S phase at 25 uM measured after 48 hrs by Hoechst/BrdU staining based fluorescence assay (reference value: 40.3%); type: functional
# Caco-2 [30] = assay: Cell cycle arrest in human Caco2 cells assessed as accumulation at M phase by Hoechst staining based fluorescence assay; type: functional
# HaCaT [31] = assay: Cell cycle arrest in human HaCaT cells assessed as accumulation at M phase by Hoechst staining based fluorescence assay; type: functional
# HCT-116 [32] = assay: Induction of apoptosis in human HCT116 cells harboring wild-type p53 assessed as upregulation of cyclinB1 measured after 48 hrs by Hoechst staining based assay; type: functional, cell-based
# PC-3 [33] = assay: Induction of apoptosis in human PC3 cells harboring p53 mutant assessed as upregulation of cyclinB1 after 48 hrs by Hoechst staining based assay; type: functional, cell-based
# MDA-MB-231 [34] = assay: Induction of apoptosis in human MDA-MB-231 cells harboring p53 mutant assessed as increase in late apoptosis at 2 times IC50 after 24 hrs by YoPro/propidium iodide/Hoechst staining based assay; type: functional, cell-based
# MDA-MB-231 [35] = assay: Cell cycle arrest in human MDA-MB-231 cells assessed as accumulation at M phase by Hoechst staining based fluorescence assay; type: functional
# MDA-MB-231 [36] = assay: Induction of apoptosis in human MDA-MB-231 cells harboring p53 mutant assessed as upregulation of cyclinB1 after 18 hrs by Hoechst staining based assay; type: functional, cell-based
Compound,viability at 50 µM (Caco-2 [1]) [%],viability at 50 µM (MDA-MB-231 [2]) [%],viability at 50 µM (PC-3 [3]) [%],"viability at 48 h, 50 µM [4] [%]",IC50 (Huh-7 [5]) [µM],IC50 (Caco-2 [6]) [µM],IC50 (MDA-MB-231 [7]) [µM],IC50 (HaCaT [8]) [µM],IC50 (Fibroblast) [µM],IC50 (RL) [µM],IC50 (MCF7 [9]) [µM],Ratio IC50 [10],Ratio IC50 [11],Ratio IC50 [12],Activity (HCT-116 [13]),Activity (PC-3 [14]),Activity (PC-3 [15]),Activity (MCF7 [16]),Activity (MDA-MB-231 [17]),Activity_index (HCT-116 [18]),further results
COc1cc(O)c(C(=O)/C=C/c2ccccc2SC)c(OC)c1,23,39,35,65,16.6,9.6,> 20,10.5,> 20,8.9,15.9,3.8,4.1,2.3,Active,Active,Active,Active,inactive,0.8,Activity (HCT-116 [19]): 52%; Activity (PC-3 [20]): 35%; Activity_index (NCI-H727 [21]): 0.9; Activity (NCI-H727 [22]): 43%; Activity_index (Huh-7 [23]): 5.3; Activity (Huh-7 [24]): 37%; Activity_index (Caco-2 [25]): 21.9; Activity (HCT-116 [26]): 28%; Activity_index (PC-3 [27]): 7.6; Activity_index (NCI-H727 [28]): 0.4; Activity (NCI-H727 [29]): 12%; Activity (Caco-2 [30]): Active; Activity (HaCaT [31]): Active; Activity (HCT-116 [32]): Active; Activity (PC-3 [33]): Active
COc1cc(O)c(C(=O)/C=C/c2ccccc2OC)c(OC)c1,43,37,32,71,> 20,10,> 20,10.9,> 20,10.1,10.5,3.6,3.8,3.5,Active,Active,Active,Active,inactive,1.2,Activity (HCT-116 [19]): 42%; Activity (PC-3 [20]): 36%; Activity_index (NCI-H727 [21]): 1; Activity (NCI-H727 [22]): 43%; Activity (Huh-7 [23]): inactive; Activity (Huh-7 [24]): inactive; Activity_index (Caco-2 [25]): 21.5; Activity (HCT-116 [26]): 27%; Activity_index (PC-3 [27]): 7.2; Activity_index (NCI-H727 [28]): 0.5; Activity (NCI-H727 [29]): 14%; Activity (Caco-2 [30]): Active; Activity (HaCaT [31]): Active; Activity (HCT-116 [32]): Active; Activity (PC-3 [33]): Active
COc1cc(O)c(C(=O)/C=C/c2ccc(F)cc2)c(OC)c1,45,69,56,> 80,> 20,9.2,> 20,> 20,> 20,5.4,8.8,>5.4,>3.8,>5.7,Active,Active,Active,Active,inactive,1.2,Activity (HCT-116 [19]): 59%; Activity (PC-3 [20]): 37%; Activity (NCI-H727 [21]): inactive; Activity (NCI-H727 [22]): inactive; Activity (Huh-7 [23]): inactive; Activity (Huh-7 [24]): inactive; Activity_index (Caco-2 [25]): 24.8; Activity (HCT-116 [26]): 28%; Activity_index (PC-3 [27]): 5.3; Activity (NCI-H727 [28]): inactive; Activity (NCI-H727 [29]): inactive; Activity (Caco-2 [30]): Active; Activity (HCT-116 [32]): Active; Activity (PC-3 [33]): Active
COc1cc(O)c(C(=O)/C=C/c2ccccc2)c(OC)c1 [FLAVOKAWAIN B],1,19,27,32,15.9,9.9,16.3,13.6,> 20,8.2,15.5,2.7,2.9,1.7,Active,Active,Active,Active,54%,1.1,Activity (MDA-MB-231 [34]): Active; Activity (HCT-116 [19]): 37%; Activity (PC-3 [20]): 35%; Activity_index (NCI-H727 [21]): 0.8; Activity (NCI-H727 [22]): 39%; Activity_index (Huh-7 [23]): 1.7; Activity (Huh-7 [24]): 30%; Activity_index (Caco-2 [25]): 19.3; Activity (HCT-116 [26]): 28%; Activity_index (PC-3 [27]): 2; Activity_index (NCI-H727 [28]): 0.2; Activity (NCI-H727 [29]): 7%; Activity (Caco-2 [30]): Active; Activity (MDA-MB-231 [35]): Active; Activity (HCT-116 [32]): Active; Activity (PC-3 [33]): Active; Activity (MDA-MB-231 [36]): Active
COc1cccc(/C=C/C(=O)c2c(O)cc(OC)cc2OC)c1,1,11,22,44,15,11.2,13.2,10.4,> 20,9,10.3,2.4,3.7,2.6,Active,Active,Active,Active,54%,1.2,Activity (MDA-MB-231 [34]): Active; Activity (HCT-116 [19]): 30%; Activity (PC-3 [20]): 39%; Activity_index (NCI-H727 [21]): 1.2; Activity (NCI-H727 [22]): 35%; Activity_index (Huh-7 [23]): 0.1; Activity (Huh-7 [24]): 8.5%; Activity_index (Caco-2 [25]): 6.1; Activity (HCT-116 [26]): 37%; Activity_index (PC-3 [27]): 0.4; Activity_index (NCI-H727 [28]): 0.1; Activity (NCI-H727 [29]): 1.4%; Activity (Caco-2 [30]): Active; Activity (MDA-MB-231 [35]): Active; Activity (HCT-116 [32]): Active; Activity (PC-3 [33]): Active; Activity (MDA-MB-231 [36]): Active
